Assay results: paper PMC3885398, “Evaluation of the Antitumor Effects of BPR1J-340, a Potent and Selective FLT3 Inhibitor, Alone or in Combination with an HDAC Inhibitor, Vorinostat, in AML Cancer” (PLoS ONE, 2014)
Several values for one entry are separate records, joined by “and”; a condition that tells them apart may be missing. Equal entries are not always repeated.

How the values were obtained:
[1] = molecular target: KDR (VEGFR2) (Homo sapiens, UniProt P35968); assay: VEGFR2 Kinase-Glo kinase assay; format: biochemical; set-up: VEGFR2 (residues V789-V1356); made in house
Sequence of KDR (VEGFR2) (P35968 789-1356): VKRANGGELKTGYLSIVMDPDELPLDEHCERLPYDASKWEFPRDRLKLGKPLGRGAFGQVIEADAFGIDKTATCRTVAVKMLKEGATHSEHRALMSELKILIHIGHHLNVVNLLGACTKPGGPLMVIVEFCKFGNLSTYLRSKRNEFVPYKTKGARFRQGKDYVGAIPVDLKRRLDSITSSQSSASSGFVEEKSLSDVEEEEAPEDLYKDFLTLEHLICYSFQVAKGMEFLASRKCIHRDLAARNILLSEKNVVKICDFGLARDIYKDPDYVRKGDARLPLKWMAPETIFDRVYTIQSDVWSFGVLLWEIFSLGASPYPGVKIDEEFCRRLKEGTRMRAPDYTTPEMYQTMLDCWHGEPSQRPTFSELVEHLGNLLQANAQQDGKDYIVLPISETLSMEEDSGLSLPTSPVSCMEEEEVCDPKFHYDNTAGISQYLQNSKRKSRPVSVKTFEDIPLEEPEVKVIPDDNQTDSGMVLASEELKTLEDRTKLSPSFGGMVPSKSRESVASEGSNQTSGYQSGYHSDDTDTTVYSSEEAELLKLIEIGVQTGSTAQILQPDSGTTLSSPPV
Method: (§1) The FLT3 inhibitors, BPR1J-340 and AC220, were synthesized by our laboratory. The histone deacetylase inhibitor vorinostat (SAHA) was purchased from SelleckBio (Houston, TX, USA). All inhibitors were dissolved in dimethylsulfoxide (DMSO) at a stock concentration of 10 mM. The anti-FLT3 (sc-480, Santa Cruz Biotechnology, Santa Cruz, CA, USA), anti-pFLT3-Tyr591 (#3461, Cell Signaling Technology, Beverly, MA, USA) anti-STAT5 (#9363, Cell Signaling Technology), anti-pSTAT5–Tyr694 (#9351, Cell Signaling Technology), anti-cleaved poly ADP-ribose polymerase (PARP) (#9542, Cell Signaling Technology), anti-Mcl-1 (#4572, Cell Signaling Technology), anti-caspase 3 (#9662, Cell Signaling Technology) and anti-β-actin (Gtx110546, GeneTex, Irvine, CA, USA) antibodies were purchased for Western blotting analysis. The preparation of recombinant proteins, FLT3 (residues Y567-S993), VEGFR1 (residues R781-I1338) and VEGFR2 (residues V789-V1356), for biochemical kinase assay was described previously. The VEGFR3 (residues M800-Y1363) proteins were purchased from Upstate (Billerica, MA, USA).
(§2) The FLT3 and VEGFR1/2 Kinase-Glo kinase assays were performed as reported by our earlier study. […] The kinase inhibition profiling and inhibitory activity of FLT3-D835Y, CSF1R, and TRKA were determined by Invitrogen SelectScreen® kinase profiling service (Carlsbad, California, USA).

[2] = molecular target: FLT4 (VEGFR3) (Homo sapiens, UniProt P35916); assay: VEGFR3 Kinase-Glo kinase assay; format: biochemical; set-up: VEGFR3 (residues M800-Y1363); purchased Upstate (Billerica, MA, USA)
Sequence of FLT4 (VEGFR3) (P35916 800-1363): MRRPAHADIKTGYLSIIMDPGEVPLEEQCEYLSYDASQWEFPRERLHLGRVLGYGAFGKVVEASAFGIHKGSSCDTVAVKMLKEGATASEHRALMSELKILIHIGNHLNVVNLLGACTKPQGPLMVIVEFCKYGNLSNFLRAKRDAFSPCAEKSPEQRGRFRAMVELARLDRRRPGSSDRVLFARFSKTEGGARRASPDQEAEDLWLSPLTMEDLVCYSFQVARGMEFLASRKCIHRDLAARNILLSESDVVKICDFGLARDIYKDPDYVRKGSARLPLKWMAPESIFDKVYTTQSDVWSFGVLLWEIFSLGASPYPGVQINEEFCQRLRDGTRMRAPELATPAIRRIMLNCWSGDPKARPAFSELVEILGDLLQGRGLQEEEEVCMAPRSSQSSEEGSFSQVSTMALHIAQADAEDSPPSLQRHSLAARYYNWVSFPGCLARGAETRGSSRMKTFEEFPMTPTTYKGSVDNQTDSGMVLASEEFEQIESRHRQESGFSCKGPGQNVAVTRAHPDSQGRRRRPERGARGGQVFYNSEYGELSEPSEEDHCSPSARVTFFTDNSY
Method: as §1, §2

[3] = molecular target: T1, FLT3 D835Y (Homo sapiens, UniProt P36888, D835Y); assay: FLT3 phosphorylation in transfected HEK293T cells, Western blot; format: cell-based; set-up: expressed in transfected cells; host or cells: HEK293T; details: HEK293T cells expressing FLT3-D835Y, 1 hr, FLT3 ligand 50 ng/mL 5 min
T1 sequence (P36888 27-993 D835Y): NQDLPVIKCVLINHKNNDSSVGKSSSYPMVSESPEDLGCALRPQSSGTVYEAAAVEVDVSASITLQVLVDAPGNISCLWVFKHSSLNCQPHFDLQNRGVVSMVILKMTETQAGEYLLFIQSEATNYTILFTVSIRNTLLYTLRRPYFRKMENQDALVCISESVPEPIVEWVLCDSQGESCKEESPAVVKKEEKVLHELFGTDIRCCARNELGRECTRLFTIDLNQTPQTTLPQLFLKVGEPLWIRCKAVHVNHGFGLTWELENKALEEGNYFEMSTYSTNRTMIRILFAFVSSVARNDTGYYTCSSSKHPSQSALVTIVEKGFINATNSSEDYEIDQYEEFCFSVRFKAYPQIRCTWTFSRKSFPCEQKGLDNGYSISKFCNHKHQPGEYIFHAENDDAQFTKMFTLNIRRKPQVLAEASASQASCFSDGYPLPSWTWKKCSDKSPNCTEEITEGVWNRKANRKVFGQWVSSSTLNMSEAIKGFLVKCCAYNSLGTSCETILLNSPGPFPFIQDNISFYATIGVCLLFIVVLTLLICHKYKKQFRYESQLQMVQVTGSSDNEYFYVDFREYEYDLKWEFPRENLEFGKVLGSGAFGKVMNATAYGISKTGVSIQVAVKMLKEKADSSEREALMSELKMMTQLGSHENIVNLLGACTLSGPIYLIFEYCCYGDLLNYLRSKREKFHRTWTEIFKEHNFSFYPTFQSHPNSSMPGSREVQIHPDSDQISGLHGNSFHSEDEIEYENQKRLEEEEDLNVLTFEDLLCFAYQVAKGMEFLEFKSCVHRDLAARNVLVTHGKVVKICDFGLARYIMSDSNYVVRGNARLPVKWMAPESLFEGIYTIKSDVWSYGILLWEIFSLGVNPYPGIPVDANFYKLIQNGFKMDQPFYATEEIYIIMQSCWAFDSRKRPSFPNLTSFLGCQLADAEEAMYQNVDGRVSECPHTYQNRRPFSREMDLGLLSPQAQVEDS
Method: (§3) Cells were lysed in lysis buffer (50 mM Tris, pH 8.0, 150 mM NaCl, 1% Triton X-100, 0.5% sodium deoxycholate, 0.1% SDS, 1 mM sodium orthovanadate, 1 mM PMSF, and 1 mM DTT). Protein lysates were resolved by SDS-PAGE and transferred onto a polyvinylidene difluoride (PVDF) membrane (Millipore, Bedford, MA, USA). The membranes were immunoblotted with appropriate antibodies and detected using the SuperSignal reagent (Pierce, Rockford, IL, USA) followed by exposure to X-ray film.
(§4) To address whether BPR1J-340 was able to inhibit the FLT3 signaling pathway in FLT3-driven cells, MV4;11 cells were treated with different concentrations of BPR1J-340 for 1 hour, and the phosphorylation status of FLT3 and STAT5 (Signal Transducer and Activator of Transcription 5), a critical down-stream modulator that plays a major role in FLT3-ITD signal transduction for cell expansion and survival, was examined by Western blot analysis. […] To investigate the difference in sensitivity between FLT3-WT and the activating mutants FLT3-ITD and FLT3-D835Y to BPR1J-340, HEK293T cells engineered to express FLT3-WT or mutants FLT3 (FLT3-ITD, FLT3-D835Y) were analyzed. […]
(§5) Figure 2 BPR1J-340 inhibits FLT3-dependent signaling. […] The phosphorylation status of FLT3 and STAT5 were evaluated by Western blot analysis. […] The FLT3 phosphorylation status in the transfected cells was evaluated by Western blot analysis.

[4] = molecular target: FLT3-ITD (Homo sapiens, UniProt P36888, ITD); assay: as above; format: cell-based; details: HEK293T cells expressing FLT3-ITD, 1 hr, FLT3 ligand 50 ng/mL 5 min
Method: as §3, §4, §5

CCc1cc(NC(=O)NCc2ccc(-c3cc(NC(=O)c4ccc(CN5CCN(C)CC5)cc4)[nH]n3)cc2)no1 [BPR1J-340, N1-(3-4-[([(5-ethyl-3-isoxazolyl)amino]carbonylamino)methyl]phenyl-1H-5-pyrazolyl)-4-[(4-methylpiperazino)methyl]benzamide]
IC50 [1]: 28 ± 9 nM
IC50 [2]: 29 ± 7 nM
IC50 [3]: 10 to 100 nM and ~100 nM
IC50 [4]: 10 to 100 nM
